The supplement of paper PMC10307832

Experiments:
Test in all cases: relative viability (nuclei count vs DMSO), 5 days (fraction); higher = more cells survive
IA-LM = test system: IA-LM
Method in brief: (§1)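 Values are medians from duplicate plates. Each reflects relative viability, defined as the nuclei count of treated wells over that of vehicle wells. Lung cancer cell lines in 1536-well plates were pin-tool dosed one day after seeding with one drug alone or with a fixed anchor-drug dose plus five library-drug doses (not always all listed) in √10 steps, then fixed, stained and imaged at 4× after 5 days.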

EKVX = test system: EKVX
Method in brief: as §1

A549 = test system: A549
Method in brief: as §1

NCI-H1299 = test system: NCI-H1299
Method in brief: as §1

HCC-44 = test system: HCC-44
Method in brief: as §1

NCI-H1755 = test system: NCI-H1755
Method in brief: as §1

NCI-H1395 = test system: NCI-H1395
Method in brief: as §1

Calu-6 = test system: Calu-6
Method in brief: as §1

UMC-11 = test system: UMC-11
Method in brief: as §1

EBC-1 = test system: EBC-1
Method in brief: as §1

HCC-15 = test system: HCC-15
Method in brief: as §1

LCLC-103H = test system: LCLC-103H
Method in brief: as §1

NCI-H1703 = test system: NCI-H1703
Method in brief: as §1

## COc1nc(C)cnc1NS(=O)(=O)c1cccnc1-c1ccc(-c2nnco2)cc1 [Zibotentan] + C[C@]1(O)C[C@@H](c2nc(-c3ccc4ccc(-c5ccccc5)nc4c3)c3c(N)nccn32)C1 [Linsitinib] (partner 1 µM)
IA-LM; first compound 0.08 µM
  relative viability: 0.627
IA-LM; first compound 0.253 µM
  relative viability: 0.743
IA-LM; first compound 0.8 µM
  relative viability: 0.778
IA-LM; first compound 2.53 µM
  relative viability: 0.456
EKVX; first compound 0.08 µM
  relative viability: 1.02
EKVX; first compound 0.253 µM
  relative viability: 1.02
EKVX; first compound 0.8 µM
  relative viability: 0.777
EKVX; first compound 2.53 µM
  relative viability: 1.16
A549; first compound 0.08 µM
  relative viability: 0.578
A549; first compound 0.253 µM
  relative viability: 0.539
A549; first compound 0.8 µM
  relative viability: 0.589
A549; first compound 2.53 µM
  relative viability: 0.642
NCI-H1299; first compound 0.08 µM
  relative viability: 0.938
NCI-H1299; first compound 0.253 µM
  relative viability: 1.01
NCI-H1299; first compound 0.8 µM
  relative viability: 0.984
NCI-H1299; first compound 2.53 µM
  relative viability: 0.987
HCC-44; first compound 0.08 µM
  relative viability: 0.759
HCC-44; first compound 0.253 µM
  relative viability: 0.614
HCC-44; first compound 0.8 µM
  relative viability: 0.747
HCC-44; first compound 2.53 µM
  relative viability: 0.703
NCI-H1755; first compound 0.08 µM
  relative viability: 0.99
NCI-H1755; first compound 0.253 µM
  relative viability: 0.967
NCI-H1755; first compound 0.8 µM
  relative viability: 1.03
NCI-H1755; first compound 2.53 µM
  relative viability: 1.03
NCI-H1395; first compound 0.08 µM
  relative viability: 1.39
NCI-H1395; first compound 0.253 µM
  relative viability: 1.07
NCI-H1395; first compound 0.8 µM
  relative viability: 1.05
NCI-H1395; first compound 2.53 µM
  relative viability: 1.08
Calu-6; first compound 0.08 µM
  relative viability: 0.996
Calu-6; first compound 0.253 µM
  relative viability: 0.885
Calu-6; first compound 0.8 µM
  relative viability: 0.966
Calu-6; first compound 2.53 µM
  relative viability: 0.922
UMC-11; first compound 0.08 µM
  relative viability: 1.11
UMC-11; first compound 0.253 µM
  relative viability: 0.944
UMC-11; first compound 0.8 µM
  relative viability: 1.03
UMC-11; first compound 2.53 µM
  relative viability: 1.05
EBC-1; first compound 0.08 µM
  relative viability: 0.816
EBC-1; first compound 0.253 µM
  relative viability: 0.986
EBC-1; first compound 0.8 µM
  relative viability: 0.934
EBC-1; first compound 2.53 µM
  relative viability: 0.915
HCC-15; first compound 0.08 µM
  relative viability: 0.905
HCC-15; first compound 0.253 µM
  relative viability: 0.912
HCC-15; first compound 0.8 µM
  relative viability: 0.867
HCC-15; first compound 2.53 µM
  relative viability: 0.878
LCLC-103H; first compound 0.08 µM
  relative viability: 1.09
LCLC-103H; first compound 0.253 µM
  relative viability: 0.951
LCLC-103H; first compound 0.8 µM
  relative viability: 1.06
LCLC-103H; first compound 2.53 µM
  relative viability: 1.2
NCI-H1703; first compound 0.08 µM
  relative viability: 0.655
NCI-H1703; first compound 0.253 µM
  relative viability: 0.718
NCI-H1703; first compound 0.8 µM
  relative viability: 0.865
NCI-H1703; first compound 2.53 µM
  relative viability: 0.167

## COc1nc(C)cnc1NS(=O)(=O)c1cccnc1-c1ccc(-c2nnco2)cc1 [Zibotentan] + Cc1nc(NC(=O)N2CCC[C@H]2C(N)=O)sc1-c1ccnc(C(C)(C)C(F)(F)F)c1 [Alpelisib] (partner 2 µM)
IA-LM; first compound 0.08 µM
  relative viability: 0.799
IA-LM; first compound 0.253 µM
  relative viability: 0.725
IA-LM; first compound 0.8 µM
  relative viability: 0.646
IA-LM; first compound 2.53 µM
  relative viability: 0.812
EKVX; first compound 0.08 µM
  relative viability: 0.927
EKVX; first compound 0.253 µM
  relative viability: 0.86
EKVX; first compound 0.8 µM
  relative viability: 0.775
EKVX; first compound 2.53 µM
  relative viability: 0.82
A549; first compound 0.08 µM
  relative viability: 0.852
A549; first compound 0.253 µM
  relative viability: 0.578
A549; first compound 0.8 µM
  relative viability: 0.704
A549; first compound 2.53 µM
  relative viability: 0.88
NCI-H1299; first compound 0.08 µM
  relative viability: 1.06
NCI-H1299; first compound 0.253 µM
  relative viability: 1.05
NCI-H1299; first compound 0.8 µM
  relative viability: 1.06
NCI-H1299; first compound 2.53 µM
  relative viability: 1.07
HCC-44; first compound 0.08 µM
  relative viability: 0.932
HCC-44; first compound 0.253 µM
  relative viability: 0.768
HCC-44; first compound 0.8 µM
  relative viability: 0.842
HCC-44; first compound 2.53 µM
  relative viability: 0.842
NCI-H1755; first compound 0.08 µM
  relative viability: 0.887
NCI-H1755; first compound 0.253 µM
  relative viability: 0.911
NCI-H1755; first compound 0.8 µM
  relative viability: 0.937
NCI-H1755; first compound 2.53 µM
  relative viability: 0.94
NCI-H1395; first compound 0.08 µM
  relative viability: 1.28
NCI-H1395; first compound 0.253 µM
  relative viability: 0.993
NCI-H1395; first compound 0.8 µM
  relative viability: 1.18
NCI-H1395; first compound 2.53 µM
  relative viability: 1.42
Calu-6; first compound 0.08 µM
  relative viability: 1
Calu-6; first compound 0.253 µM
  relative viability: 0.986
Calu-6; first compound 0.8 µM
  relative viability: 0.98
Calu-6; first compound 2.53 µM
  relative viability: 1.1
UMC-11; first compound 0.08 µM
  relative viability: 0.861
UMC-11; first compound 0.253 µM
  relative viability: 0.961
UMC-11; first compound 0.8 µM
  relative viability: 0.925
UMC-11; first compound 2.53 µM
  relative viability: 0.971
EBC-1; first compound 0.08 µM
  relative viability: 0.826
EBC-1; first compound 0.253 µM
  relative viability: 0.855
EBC-1; first compound 0.8 µM
  relative viability: 0.944
EBC-1; first compound 2.53 µM
  relative viability: 0.857
HCC-15; first compound 0.08 µM
  relative viability: 0.954
HCC-15; first compound 0.253 µM
  relative viability: 0.884
HCC-15; first compound 0.8 µM
  relative viability: 0.869
HCC-15; first compound 2.53 µM
  relative viability: 0.844
LCLC-103H; first compound 0.08 µM
  relative viability: 0.955
LCLC-103H; first compound 0.253 µM
  relative viability: 0.969
LCLC-103H; first compound 0.8 µM
  relative viability: 1.01
LCLC-103H; first compound 2.53 µM
  relative viability: 1.05
NCI-H1703; first compound 0.08 µM
  relative viability: 0.363
NCI-H1703; first compound 0.253 µM
  relative viability: 0.386
NCI-H1703; first compound 0.8 µM
  relative viability: 0.464
NCI-H1703; first compound 2.53 µM
  relative viability: 0.237
